The conditions of series [1]: cited from earlier work.
In series [2] the target is T1, mMATE1 (Mus musculus, UniProt Q8K0H1).
T1 sequence (Q8K0H1 1-567): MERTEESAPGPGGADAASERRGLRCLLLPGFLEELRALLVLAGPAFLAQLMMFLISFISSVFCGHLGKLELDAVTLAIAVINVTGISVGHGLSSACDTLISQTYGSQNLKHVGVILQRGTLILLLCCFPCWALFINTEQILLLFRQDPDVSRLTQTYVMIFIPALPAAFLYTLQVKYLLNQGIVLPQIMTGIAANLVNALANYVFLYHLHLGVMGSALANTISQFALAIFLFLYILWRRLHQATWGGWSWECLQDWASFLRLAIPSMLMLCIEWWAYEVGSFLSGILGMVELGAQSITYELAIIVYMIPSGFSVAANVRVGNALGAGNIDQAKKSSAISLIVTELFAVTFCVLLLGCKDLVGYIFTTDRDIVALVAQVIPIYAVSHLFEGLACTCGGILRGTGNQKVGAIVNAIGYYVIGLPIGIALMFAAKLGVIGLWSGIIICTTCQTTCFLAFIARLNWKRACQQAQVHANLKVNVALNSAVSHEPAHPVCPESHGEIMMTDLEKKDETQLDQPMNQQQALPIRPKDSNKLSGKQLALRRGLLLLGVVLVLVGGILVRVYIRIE
Kind of series: cell-based.

The next series deals with LLC-PK1. The conditions noted are these: LLC-PK1 cells; cited from earlier work.
For series [3], the target named is T2, hMATE2-K (Homo sapiens, UniProt Q86VL8). As to the kind of experiment: cell-based. The protocol:
(§1) For transient expression, HEK293 cells were seeded on 24-well (2 × 10^5 cells/well) poly-D-lysine-coated plates (BD Biocoat, Franklin Lakes, NJ, USA) and transfected with hMATE1, hMATE2-K and mMATE1 cDNA containing plasmid vectors and empty vectors (pcDNA3.1(+) for hMATE1 and hMATE2-K, pFLAG for mMATE1) by using the LipofectAMINE 2000 Reagent (Life Technologies Corporation), according to the manufacturer’s instructions. The cells were used for uptake experiments at 48 h after transfection, while the empty vector-expressing cells were used as control.
(§2) The cells were dissolved in 0.5 mL of 0.5 normality (N) sodium hydroxide (NaOH), and then, the radioactivity in 200 µL was determined using liquid scintillation counting following addition to 2 mL of Ultima Gold (PerkinElmer). The protein content of each NaOH solution was determined using a Bio-Rad Protein Assay Kit (Bio-Rad Laboratories, Hercules, CA, USA) by using bovine γ-globulin as a standard. The Km and Vmax values were calculated from the saturation curve using the Michaelis–Menten equation, V = Vmax[S]/(Km + [S]), with Kaleidagraph Version 4.00 (Synergy Software, Reading, PA, USA) after the nonspecific uptake values were subtracted.

In a further series the target is T3, hMATE1 (Homo sapiens, UniProt Q96FL8).
T3 sequence (Q96FL8 1-570): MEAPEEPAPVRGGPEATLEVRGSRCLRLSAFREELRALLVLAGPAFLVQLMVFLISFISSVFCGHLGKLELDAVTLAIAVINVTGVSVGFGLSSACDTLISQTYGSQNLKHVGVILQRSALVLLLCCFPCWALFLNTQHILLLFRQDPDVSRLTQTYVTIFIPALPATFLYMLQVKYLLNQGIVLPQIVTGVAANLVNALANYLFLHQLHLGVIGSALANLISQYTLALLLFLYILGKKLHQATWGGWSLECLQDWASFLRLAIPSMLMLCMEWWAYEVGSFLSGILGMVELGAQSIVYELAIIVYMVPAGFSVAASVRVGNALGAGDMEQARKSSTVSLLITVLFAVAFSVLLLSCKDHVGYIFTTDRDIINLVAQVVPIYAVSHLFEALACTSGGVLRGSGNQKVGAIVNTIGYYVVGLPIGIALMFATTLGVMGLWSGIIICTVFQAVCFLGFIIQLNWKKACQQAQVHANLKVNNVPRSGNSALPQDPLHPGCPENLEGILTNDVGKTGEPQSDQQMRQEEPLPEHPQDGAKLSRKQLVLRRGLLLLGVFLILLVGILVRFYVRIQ
Kind of series: [3H]dopamine uptake kinetics in HEK293 cells transiently expressing hMATE1. In kind it is cell-based. The procedure:
as §1, §2

Series [4] concerns the target T2, hMATE2-K. Particulars: [3H]dopamine uptake, HEK293 cells expressing hMATE2-K. The protocol:
as §1, §2

Series [5] concerns the target T1, mMATE1. The conditions noted are these: [3H]dopamine uptake, HEK293 cells expressing mMATE1. The protocol: as §1, §2
Where [6] appears, read: patients with CML (imatinib also gastrointestinal stromal tumors), efficacy target for imatinib and nilotinib, safety limit for dasatinib.

Molecules are shown by their SMILES. Read-outs that look alike come from different tables or passages of the source. Where only a bound is given, the exact number is not on record here.

T2 sequence (Q86VL8 1-566 isoform Q86VL8-3): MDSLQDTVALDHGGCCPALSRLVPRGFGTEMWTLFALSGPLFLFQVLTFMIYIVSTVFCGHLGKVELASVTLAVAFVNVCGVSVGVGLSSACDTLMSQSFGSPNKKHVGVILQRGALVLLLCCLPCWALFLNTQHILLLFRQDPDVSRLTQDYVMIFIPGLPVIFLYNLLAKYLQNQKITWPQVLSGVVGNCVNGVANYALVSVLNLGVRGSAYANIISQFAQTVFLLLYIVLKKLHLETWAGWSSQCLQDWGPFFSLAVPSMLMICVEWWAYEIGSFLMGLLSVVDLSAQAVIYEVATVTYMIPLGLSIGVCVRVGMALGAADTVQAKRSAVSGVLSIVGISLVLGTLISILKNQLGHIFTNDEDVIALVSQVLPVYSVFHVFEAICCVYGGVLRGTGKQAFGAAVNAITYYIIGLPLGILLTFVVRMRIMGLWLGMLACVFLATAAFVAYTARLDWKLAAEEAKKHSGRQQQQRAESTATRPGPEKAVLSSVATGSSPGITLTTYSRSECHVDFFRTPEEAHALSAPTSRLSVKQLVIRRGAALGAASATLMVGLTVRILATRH

For orientation: IC50 means the concentration that inhibits the measured activity by half. For `Cc1nc(Nc2ncc(C(=O)Nc3c(C)cccc3Cl)s2)cc(N2CCN(CCO)CC2)n1` [Dasatinib, dasatinib], the “plasma trough concentration (Ctrough), clinical target” value in series [1] (setting [6]) was no more than 2.5 ng/mL; in series [1] (same targets in molar units) it was no more than 5 nM. The IC50 at mMATE1 [2] was found to be 106 ± 7 µM.
In the case of `Fc1ccc(C(OCCN2CCN(CCCc3ccccc3)CC2)c2ccc(F)cc2)cc1` [GBR-12909], in the series on LLC-PK1, the “inhibition of outward transfer of synthesized dopamine” value is listed as “failed to inhibit”.
As for `Cc1cn(-c2cc(NC(=O)c3ccc(C)c(Nc4nccc(-c5cccnc5)n4)c3)cc(C(F)(F)F)c2)cn1` [Nilotinib, nilotinib], the half-maximal inhibitory concentration (IC50) on hMATE2-K [3] and on mMATE1 [2] was greater than 100 µM each time. Further, the “plasma trough concentration (Ctrough), clinical target” value in series [1] (setting [6]) is greater than 761 ng/mL; in series [1] (same targets in molar units), greater than 1400 nM.
Regarding `COC(=O)[C@H]1[C@@H](OC(=O)c2ccccc2)C[C@@H]2CC[C@H]1N2C` [cocaine], in the series with LLC-PK1, the “inhibition of outward transfer of synthesized dopamine” value is reported as “failed to inhibit”.
Broadly, the Km is the substrate concentration at which the rate is half of its maximum. For `NCCc1ccc(O)c(O)c1` [dopamine], at hMATE1 ([3H]dopamine uptake at 1 min, HEK293 cells expressing hMATE1, mean ± S.E., n=3), the Km was 560 ± 180 µM. The Vmax on hMATE1 ([3H]dopamine uptake, HEK293 cells expressing hMATE1) is given as 3.71 ± 0.15 nmol·mg·protein^−1·min^−1; on hMATE2-K [4], 7.69 ± 1.12 nmol·mg·protein^−1·min^−1; at mMATE1 [5], 8.73 ± 0.08 nmol·mg·protein^−1·min^−1.
